Test results as given in ChEMBL document CHEMBL1806472, “Nobiletin metabolites: synthesis and inhibitory activity against matrix metalloproteinase-9 production” (Bioorg Med Chem Lett, 2011).
pIC50: −log10 of the molar value.

How the values were obtained:
[1] = Inhibition of TNF-alpha-induced proMMP9 production in human SRA 01/04 cells after 24 hrs by SDS-PAGE analysis; assay type: functional, cell-based
[2] = Inhibition of PMA-induced proMMP9 production in human SRA 01/04 cells after 24 hrs by SDS-PAGE analysis; assay type: functional, cell-based

| pIC50 [1] | pIC50 [2] | Compound |
| --- | --- | --- |
| 4.79 | 4.77 | COc1ccc(-c2cc(=O)c3c(OC)c(OC)c(OC)c(OC)c3o2)cc1O |
| 4.77 | 4.68 | COc1ccc(-c2cc(=O)c3c(OC)c(OC)c(OC)c(OC)c3o2)cc1OC [NOBILETIN] |
| 4.97 | 4.91 | COc1c(OC)c(OC)c2c(=O)cc(-c3ccc(O)c(O)c3)oc2c1OC |
| 5.26 | 5.43 | COc1cc(-c2cc(=O)c3c(OC)c(OC)c(OC)c(OC)c3o2)ccc1O |
